From patent US20250026778A1 (TIUMBIO CO., LTD., priority 2021, published 2025) come the findings set out here.

T1 sequence (P17931 whole entry): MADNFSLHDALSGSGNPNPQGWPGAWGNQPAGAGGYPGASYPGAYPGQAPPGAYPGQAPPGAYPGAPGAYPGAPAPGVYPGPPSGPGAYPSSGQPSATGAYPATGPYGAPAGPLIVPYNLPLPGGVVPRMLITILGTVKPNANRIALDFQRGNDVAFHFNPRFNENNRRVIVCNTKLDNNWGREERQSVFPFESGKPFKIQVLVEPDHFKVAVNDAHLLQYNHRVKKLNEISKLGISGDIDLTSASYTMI

The first experiment concerns the target T1, his-galectin-3 (Homo sapiens, UniProt P17931).
T1 construct: purchased Abcam
Description: TR-FRET assay (in vitro galectin-3 binding inhibitory activity test). Conditions: Table 1; compound at 20 μM; 60 nM his-galectin-3, 15 nM biotin-ASF; read-out: % Inhibitory activity (at 20 μM). As for the experimental part:
TR-FRET Assay (In Vitro Galectin-3 Binding Inhibitory Activity Test)
TR-FRET assay was performed in ½ Area Plate-96 (PerkinElmer). Final concentrations of components in the assay were 60 nM his-galectin-3 (Abcam), 15 nM biotin-ASF (Axxora), 2 nM Mab anti-6×His Tb (Cisbio) and 20 nM SA-d2 (Cisbio). The reaction was performed in a buffer containing 25 mM HEPES, 100 mM NaCl, 0.005% Tween 20 and 0.05% BSA. 20 μL his-galectin-3 and 1 μL compound were mixed first, and then 20 μL biotin-ASF, 5 μL anti-His Tb and 5 μL SA-d2 were added in order. After incubation for at least 3.5 hours at RT, TR-FRET signals were measured at 615/665 nm […] wavelengths using a VICTOR Nivo (PerkinElmer). The positive control used DMSO instead of the compound, and the negative control excluded ASF-biotin. N-acetyl-D-lactosamine (LacNAc), an endogenous ligand unit of galectin-3, was evaluated together as a control substance to compare galectin-3 binding inhibitory activity.
Background: Time-resolved FRET reads energy transfer from a long-lived donor to a nearby acceptor.
Take `O=C(O[C@@H]1[C@@H](n2cc(-c3cc(F)c(F)c(F)c3)nn2)[C@@H](O)[C@@H](CO)O[C@@]12CCCO2)c1ncccc1F` [Compound A77, (5S,7R,8R,9S,10R)-8-hydroxy-7-(hydroxymethyl)-9-(4-(3,4,5-trifluorophenyl)-1H-1,2,3-triazol-1-yl)-1,6-dioxaspiro[4.5]decan-10-yl 3-fluoropicolinate]: the inhibition at 20 µM fell in the range of 25 to 50%.

In the case of `COC(=O)CO[C@@H]1[C@@H](n2cc(-c3cc(F)c(F)c(F)c3)nn2)[C@@H](O)[C@@H](CO)O[C@@]12CCCCO2` [Compound A32, methyl-2-(((2R,3R,4S,5R,6S)-3-hydroxy-2-(hydroxymethyl)-4-(4-(3,4,5-trifluorophenyl)-1H-1,2,3-triazol-1-yl)-1,7-dioxaspiro[5.5]undecan-5-yl)oxy)acetate], the inhibition at 20 µM is 25 to 50%.

Consider `OC[C@H]1O[C@@]2(CCCO2)[C@H](OCc2cccc(F)c2)[C@@H](n2cc(-c3cc(F)c(F)c(F)c3)nn2)[C@H]1O` [Compound A91, (5S,7R,8R,9S,10R)-10-((3-fluorobenzyl)oxy)-7-(hydroxymethyl)-9-(4-(3,4,5-trifluorophenyl)-1H-1,2,3-triazol-1-yl)-1,6-dioxaspiro[4.5]decan-8-ol], for which the inhibition at 20 µM was below 25%.

On to `O=C(Cc1cccc2ccccc12)N[C@@H]1CCO[C@]12O[C@H](CO)[C@H](O)[C@H](n1cc(-c3cc(F)c(F)c(F)c3)nn1)[C@H]2O` [Compound A111, N-((4R,5S,7R,8R,9S,10R)-8,10-dihydroxy-7-(hydroxymethyl)-9-(4-(3,4,5-trifluorophenyl)-1H-1,2,3-triazol-1-yl)-1,6-dioxaspiro[4.5]decan-4-yl)-2-(naphthalen-1-yl)acetamide], for which the inhibition at 20 µM lay within 25 to 50%.

As to `O=C(Cc1cccc(C(F)(F)F)c1)N[C@@H]1CCO[C@]12O[C@H](CO)[C@H](O)[C@H](n1cc(-c3cc(F)c(F)c(F)c3)nn1)[C@H]2O` [Compound A136, N-((4R,5S,7R,8R,9S,10R)-8,10-dihydroxy-7-(hydroxymethyl)-9-(4-(3,4,5-trifluorophenyl)-1H-1,2,3-triazol-1-yl)-1,6-dioxaspiro[4.5]decan-4-yl)-2-(3-(trifluoromethyl)phenyl)acetamide], the inhibition at 20 µM is above 75%.

Turning to `O=C(N[C@@H]1CCO[C@]12O[C@H](CO)[C@H](O)[C@H](n1cc(-c3cc(F)c(F)c(F)c3)nn1)[C@H]2O)c1ccc2cc(Cl)ccc2c1` [Compound A149, 6-chloro-N-((4R,5S,7R,8R,9S,10R)-8,10-dihydroxy-7-(hydroxymethyl)-9-(4-(3,4,5-trifluorophenyl)-1H-1,2,3-triazol-1-yl)-1,6-dioxaspiro[4.5]decan-4-yl)-2-naphthamide], the inhibition at 20 µM was 50 to 75%.

Take `O=C(O)CO[C@@H]1[C@@H](n2cc(-c3cc(F)c(F)c(F)c3)nn2)[C@@H](O)[C@@H](CO)O[C@@]12CCCO2` [Compound A21, 2-(((5S,7R,8R,9S,10R)-8-hydroxy-7-(hydroxymethyl)-9-(4-(3,4,5-trifluorophenyl)-1H-1,2,3-triazol-1-yl)-1,6-dioxaspiro[4.5]decan-10-yl)oxy)acetic acid]: the inhibition at 20 µM was in the range of 50 to 75%.

`O=C(O[C@@H]1[C@@H](n2cc(-c3cc(F)c(F)c(F)c3)nn2)[C@@H](O)[C@@H](CO)O[C@@]12CCCO2)c1ccccn1` [Compound A72, (5S,7R,8R,9S,10R)-8-hydroxy-7-(hydroxymethyl)-9-(4-(3,4,5-trifluorophenyl)-1H-1,2,3-triazol-1-yl)-1,6-dioxaspiro[4.5]decan-10-yl picolinate]: the inhibition at 20 µM lay within 50 to 75%.

Staying with this experiment, now noted: Table 2; compound at 20 μM; 60 nM his-galectin-3, 15 nM biotin-ASF; read-out: % Inhibitory activity (at 20 μM).
With `Cc1cc(C(=O)N[C@@H]2CCO[C@]23O[C@H](CO)[C@H](O)[C@H](n2cc(-c4cc(F)c(F)c(F)c4)cn2)[C@H]3O)c2cc(Cl)ccc2n1` [Compound A239, 6-chloro-N-((4R,5S,7R,8R,9S,10R)-8,10-dihydroxy-7-(hydroxymethyl)-9-(4-(3,4,5-trifluorophenyl)-1H-pyrazol-1-yl)-1,6-dioxaspiro[4.5]decan-4-yl)-2-methylquinoline-4-carboxamide], the inhibition at 20 µM is above 75%.

`O=C(N[C@@H]1CCO[C@]12O[C@H](CO)[C@H](O)[C@H](n1cc(-c3cc(F)c(F)c(F)c3)nn1)[C@H]2O)c1ccc(F)c2ccccc12` [Compound A170, N-((4R,5S,7R,8R,9S,10R)-8,10-dihydroxy-7-(hydroxymethyl)-9-(4-(3,4,5-trifluorophenyl)-1H-1,2,3-triazol-1-yl)-1,6-dioxaspiro[4.5]decan-4-yl)-4-difluoro-1-naphthamide]: the inhibition at 20 µM is above 75%.

On to `O=C(N[C@@H]1CCO[C@]12O[C@H](CO)[C@H](O)[C@H](n1cc(-c3cc(F)c(F)c(F)c3)nn1)[C@H]2O)c1cccc(-c2ccccc2F)c1` [Compound A164, N-((4R,5S,7R,8R,9S,10R)-8,10-dihydroxy-7-(hydroxymethyl)-9-(4-(3,4,5-trifluorophenyl)-1H-1,2,3-triazol-1-yl)-1,6-dioxaspiro[4.5]decan-4-yl)-2′-fluoro-[1,1′-biphenyl]-3-carboxamide], for which the inhibition at 20 µM is above 75%.

Consider `Cc1cc(C(=O)N[C@@H]2CCO[C@]23O[C@H](CO)[C@H](O)[C@H](n2cc(-c4cc(F)c(F)c(F)c4)nn2)[C@H]3O)c2cccnc2c1` [Compound A245, N-((4R,5S,7R,8R,9S,10R)-8,10-dihydroxy-7-(hydroxymethyl)-9-(4-(3,4,5-trifluorophenyl)-1H-1,2,3-triazol-1-yl)-1,6-dioxaspiro[4.5]decan-4-yl)-7-methylquinoline-5-carboxamide], for which the inhibition at 20 µM was above 75%.

Take `OC[C@H]1O[C@@]2(CCCN(c3ccccc3Cl)C2)[C@H](O)[C@@H](n2cc(-c3cc(F)c(F)c(F)c3)nn2)[C@H]1O` [Compound A222, (2R,3R,4S,5R,6R)-8-(2-chlorophenyl)-2-(hydroxymethyl)-4-(4-(3,4,5-trifluorophenyl)-1H-1,2,3-triazol-1-yl)-1-oxa-8-azaspiro[5.5]undecane-3,5-diol]: the inhibition at 20 µM is below 25%.

With `O=C(N[C@@H]1CCO[C@]12O[C@H](CO)[C@H](O)[C@H](n1cc(-c3cc(F)c(F)c(F)c3)nn1)[C@H]2O)C1CCCc2ccccc21` (stereo partly drawn) [Compound A160, N-((4R,5S,7R,8R,9S,10R)-8,10-dihydroxy-7-(hydroxymethyl)-9-(4-(3,4,5-trifluorophenyl)-1H-1,2,3-triazol-1-yl)-1,6-dioxaspiro[4.5]decan-4-yl)-1,2,3,4-tetrahydronaphthalene-1-carboxamide], the inhibition at 20 µM is 50 to 75%.

Regarding `O=C(N[C@@H]1CCO[C@]12O[C@H](CO)[C@H](O)[C@H](n1cc(-c3cc(F)c(F)c(F)c3)nn1)[C@H]2O)c1cc(=O)[nH]c2ccc(Br)cc12` [Compound A252, 6-bromo-N-((4R,5S,7R,8R,9S,10R)-8,10-dihydroxy-7-(hydroxymethyl)-9-(4-(3,4,5-trifluorophenyl)-1H-1,2,3-triazol-1-yl)-1,6-dioxaspiro[4.5]decan-4-yl)-2-oxo-1,2-dihydroquinoline-4-carboxamide], the inhibition at 20 µM was above 75%.

`O=C(N[C@@H]1CCO[C@]12O[C@H](CO)[C@H](O)[C@H](n1cc(-c3cc(F)c(F)c(F)c3)nn1)[C@H]2O)c1ccnc2ccccc12` [Compound A207, N-((4R,5S,7R,8R,9S,10R)-8,10-dihydroxy-7-(hydroxymethyl)-9-(4-(3,4,5-trifluorophenyl)-1H-1,2,3-triazol-1-yl)-1,6-dioxaspiro[4.5]decan-4-yl)quinoline-4-carboxamide]: the inhibition at 20 µM was above 75%.

As for `OC[C@H]1O[C@@]2(CCCN(c3cccc(Cl)c3)C2)[C@H](O)[C@@H](n2cc(-c3cc(F)c(F)c(F)c3)nn2)[C@H]1O` [Compound A223, (2R,3R,4S,5R,6R)-8-(3-chlorophenyl)-2-(hydroxymethyl)-4-(4-(3,4,5-trifluorophenyl)-1H-1,2,3-triazol-1-yl)-1-oxa-8-azaspiro[5.5]undecane-3,5-diol], the inhibition at 20 µM was below 25%.

Take `Cn1cc(C(=O)N[C@@H]2CCO[C@]23O[C@H](CO)[C@H](O)[C@H](n2cc(-c4cc(F)c(F)c(F)c4)nn2)[C@H]3O)c2cc(Cl)ccc21` [Compound A233, 5-chloro-N-((4R,5S,7R,8R,9S,10R)-8,10-dihydroxy-7-(hydroxymethyl)-9-(4-(3,4,5-trifluorophenyl)-1H-1,2,3-triazol-1-yl)-1,6-dioxaspiro[4.5]decan-4-yl)-1-methyl-1H-indole-3-carboxamide]: the inhibition at 20 µM lay in the range of 50 to 75%.

`O=C(N[C@@H]1CCO[C@]12O[C@H](CO)[C@H](O)[C@H](n1cc(-c3cc(F)c(F)c(F)c3)nn1)[C@H]2O)c1ccc(Br)c2ccccc12` [Compound A176, 4-bromo-N-((4R,5S,7R,8R,9S,10R)-8,10-dihydroxy-7-(hydroxymethyl)-9-(4-(3,4,5-trifluorophenyl)-1H-1,2,3-triazol-1-yl)-1,6-dioxaspiro[4.5]decan-4-yl)-1-naphthamide]: the inhibition at 20 µM was above 75%.

As for `O=C(c1cc2ccccc2s1)N1CCC[C@]2(C1)O[C@H](CO)[C@H](O)[C@H](n1cc(-c3cc(F)c(F)c(F)c3)nn1)[C@H]2O` [Compound A187, benzo[b]thiophen-2-yl((2R,3R,4S,5R,6R)-3,5-dihydroxy-2-(hydroxymethyl)-4-(4-(3,4,5-trifluorophenyl)-1H-1,2,3-triazol-1-yl)-1-oxa-8-azaspiro[5.5]undecan-8-yl)methanone], the inhibition at 20 µM is below 25%.

The experiment is the same for the next values; noted with them: Table 3, found values; compound at 20 μM; 60 nM his-galectin-3, 15 nM biotin-ASF; read-out: % Inhibitory activity (at 20 μM).
For the compound `O=C(N[C@@H]1CCO[C@]12O[C@H](CO)[C@H](O)[C@H](n1cc(-c3cc(F)c(F)c(F)c3)nn1)[C@H]2O)c1ccc(F)c2ccccc12` [Compound A170, N-((4R,5S,7R,8R,9S,10R)-8,10-dihydroxy-7-(hydroxymethyl)-9-(4-(3,4,5-trifluorophenyl)-1H-1,2,3-triazol-1-yl)-1,6-dioxaspiro[4.5]decan-4-yl)-4-difluoro-1-naphthamide], the inhibition at 20 µM is 85.3%.

For `COC(=O)CO[C@@H]1[C@@H](n2cc(-c3cc(F)c(F)c(F)c3)nn2)[C@@H](O)[C@@H](CO)O[C@@]12CCCCO2` [Compound A32, methyl-2-(((2R,3R,4S,5R,6S)-3-hydroxy-2-(hydroxymethyl)-4-(4-(3,4,5-trifluorophenyl)-1H-1,2,3-triazol-1-yl)-1,7-dioxaspiro[5.5]undecan-5-yl)oxy)acetate], the inhibition at 20 µM amounted to 36.7%.
